Experimental data reported in ChEMBL document CHEMBL1140243, “Synthesis and SAR of 2,3-diarylpyrrole inhibitors of parasite cGMP-dependent protein kinase as novel anticoccidial agents” (Bioorg Med Chem Lett, 2005).

How the values were obtained:
Type in all cases: functional
Parameters in all cases: scale not given: the % may be the effect or the level left
[1] = species: Gallus gallus; assay: Anticoccidial activity (percent reduction in oocyst production) against Eimeria praecox in chickens at 66 ppm; Range = 50-79 %
[2] = species: Gallus gallus; assay: Anticoccidial activity (percent reduction in oocyst production) against Eimeria mitis in chickens at 66 ppm; Range = 50-79 %
[3] = species: Gallus gallus; assay: Anticoccidial activity (percent reduction in oocyst production) against Eimeria maxima in chickens at 66 ppm; Range = 50-79 %
[4] = species: Gallus gallus; assay: Anticoccidial activity (percent reduction in oocyst production) against Eimeria brunetti in chickens at 66 ppm; Range = 50-79 %
[5] = species: Gallus gallus; assay: Anticoccidial activity (percent reduction in oocyst production) against Eimeria necatrix in chickens at 66 ppm; Range = 50-79 %
[6] = species: Gallus gallus; assay: Anticoccidial activity (percent reduction in oocyst production) against Eimeria acervulina in chickens at 66 ppm; Range = 50-79 %
[7] = species: Gallus gallus; assay: Anticoccidial activity (percent reduction in oocyst production) against Eimeria tenella in chickens at 66 ppm; Range = 50-79 %
[8] = species: Gallus gallus; assay: Anticoccidial activity (percent reduction in oocyst production) against Eimeria mivati in chickens at 66 ppm; Range = 50-79 %

Measured: Activity

CC[C@@H](C(=O)[C@@H](C)[C@@H](O)[C@H](C)[C@@H]1O[C@@H]([C@@H](CC)C(=O)O)CC[C@@H]1C)[C@H]1O[C@]2(C=C[C@@H](O)[C@]3(CC[C@@](C)([C@H]4CC[C@](O)(CC)[C@H](C)O4)O3)O2)[C@H](C)C[C@@H]1C [SALINOMYCIN]
<79%: all assays above
